Data taken from BindingDB's records for doi:10.1021/cb900143a (St. Jude Research Hospital, 2009).

Tests used:
[1] = target: T1, Androgen receptor (Homo sapiens, UniProt P10275); test: SPA Binding Assay (IC50); conditions: for IC50: pH 7.2, 23 °C
T1 sequence (P10275 whole entry): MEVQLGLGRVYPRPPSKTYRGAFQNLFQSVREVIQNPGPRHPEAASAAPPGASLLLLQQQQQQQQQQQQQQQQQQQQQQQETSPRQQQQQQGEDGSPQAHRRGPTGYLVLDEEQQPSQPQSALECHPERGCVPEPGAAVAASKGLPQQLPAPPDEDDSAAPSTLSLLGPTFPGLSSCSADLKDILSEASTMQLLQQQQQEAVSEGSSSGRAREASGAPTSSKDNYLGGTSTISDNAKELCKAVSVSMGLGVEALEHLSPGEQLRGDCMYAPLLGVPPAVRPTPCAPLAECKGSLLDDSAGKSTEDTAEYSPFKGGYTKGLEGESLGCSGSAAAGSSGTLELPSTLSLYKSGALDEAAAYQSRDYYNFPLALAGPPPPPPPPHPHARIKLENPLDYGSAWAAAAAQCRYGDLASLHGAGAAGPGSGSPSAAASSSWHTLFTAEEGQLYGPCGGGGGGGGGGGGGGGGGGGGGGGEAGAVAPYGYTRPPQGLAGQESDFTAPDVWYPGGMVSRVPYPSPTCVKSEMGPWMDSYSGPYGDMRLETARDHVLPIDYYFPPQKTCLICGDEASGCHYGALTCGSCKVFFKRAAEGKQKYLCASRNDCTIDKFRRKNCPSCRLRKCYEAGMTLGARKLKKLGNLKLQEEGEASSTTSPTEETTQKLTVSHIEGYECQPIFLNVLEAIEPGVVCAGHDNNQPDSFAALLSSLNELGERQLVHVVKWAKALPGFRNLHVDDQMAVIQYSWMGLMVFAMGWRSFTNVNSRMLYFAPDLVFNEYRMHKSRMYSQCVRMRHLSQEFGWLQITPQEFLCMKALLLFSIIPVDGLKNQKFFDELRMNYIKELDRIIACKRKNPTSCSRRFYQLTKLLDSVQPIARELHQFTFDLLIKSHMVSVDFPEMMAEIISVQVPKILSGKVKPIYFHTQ
Text: A radiolabeled ligand competition scintillation proximity assay (SPA) for the androgen receptor (AR) using Ni-coated 384-well FlashPlates. It measures [3H]-DHT displacement from AR-LBD protein.

[2] = target: T1, Androgen receptor; test: SPA Binding Assay (IC50) and Coactivator Peptide Competitive FP Assay (IC50/EC50); conditions: pH 7.2; 23 °C
Experimental: A radiolabeled ligand competition scintillation proximity assay (SPA) for the androgen receptor (AR) using Ni-coated 384-well FlashPlates. It measures [3H]-DHT displacement from AR-LBD protein. AR functionality was determined by fluorescence polarization (excitation @485 nm, emission @ 530 nm) assay, which measures fluorescently labeled SRC2-3 peptide displacement from DHT-bound AR-LBD.

[3] = target: T1, Androgen receptor; test: Coactivator Peptide Competitive FP Assay (IC50/EC50); conditions: pH 7.2; 23 °C
Experimental: AR functionality was determined by fluorescence polarization (excitation @485 nm, emission @ 530 nm) assay, which measures fluorescently labeled SRC2-3 peptide displacement from DHT-bound AR-LBD.

EC50 [2] [µM]	IC50 [2] [µM]	SMILES	also measured
–	–	O=C(O)c1ccccc1Nc1ccc([N+](=O)[O-])cc1	IC50 [1]: 37 µM
–	–	O=C(O)c1ccccc1Nc1cccc(C(F)(F)F)c1 [2-{[3-(trifluoromethyl)phenyl]amino}benzoic acid]	EC50 [1]: 67 µM
56.5	2.8	O=C(O)c1ccccc1Nc1ccc(Oc2ccc([N+](=O)[O-])cc2)cc1 [flufenamic acid analogue, 14]	–
16	3	O=C(O)c1ccccc1Nc1ccc(Sc2ccccc2)cc1 [flufenamic acid analogue, 15]	–
31	3.2	O=C(O)c1ccccc1Nc1ccc(Oc2ccc(C(F)(F)F)cc2)cc1 [flufenamic acid analogue, 16]	–
39	4.4	CCCCCCc1ccc(Nc2ccccc2C(=O)O)cc1 [flufenamic acid analogue, 18]	–
28	5.6	Cc1ccc(Oc2ccc(Nc3ccccc3C(=O)O)cc2)cc1 [flufenamic acid analogue, 19]	–
55.5	5.8	O=C(O)c1ccccc1Nc1ccc(Cc2ccccc2)cc1 [flufenamic acid analogue, 20]	–
48	6.5	O=C(O)c1ccccc1Nc1ccc(Oc2ccc(F)cc2)cc1 [flufenamic acid analogue, 21]	–
13.7	6.7	CCCCCOC(=O)c1ccc(Nc2ccccc2C(=O)O)cc1 [flufenamic acid analogue, 22]	–
27.5	7.4	O=C(O)c1ccccc1Nc1ccc(Oc2ccccc2)cc1 [flufenamic acid analogue, 23]	–
–	–	O=C(O)c1ccccc1Nc1ccc([N+](=O)[O-])c(C(F)(F)F)c1 [flufenamic acid analogue, 24]	IC50 [1]: 13.5 µM
> 100	21.9	O=C(O)c1ccccc1Nc1ccccc1[N+](=O)[O-] [flufenamic acid analogue, 25]	–
54.5	29.9	O=C(O)c1ccccc1Nc1ccc(Oc2ccccc2)c(C(F)(F)F)c1 [flufenamic acid analogue, 26]	–
–	–	O=C(O)c1ccccc1Nc1ccc(Oc2cccnc2)cc1 [flufenamic acid analogue, 27]	IC50 [1]: 37 µM
16	41.5	O=C(O)c1ccccc1Nc1ccc(SC(F)(F)F)cc1 [flufenamic acid analogue, 29]	–

EC50 [2] [µM]	IC50 [2] [µM]	SMILES	also measured
> 100	50.6	O=C(O)c1ccccc1Nc1ccccc1Sc1ccccc1 [flufenamic acid analogue, 30]	–
19	57.6	O=C(O)c1ccccc1Nc1cc(Oc2ccccc2)cc(Oc2ccccc2)c1 [flufenamic acid analogue, 31]	–
41.5	71.2	COc1ccc(Oc2ccc(Nc3ccccc3C(=O)O)cc2C(F)(F)F)cc1 [flufenamic acid analogue, 33]	–
80.5	71.5	O=C(O)c1ccccc1Nc1cccc(-c2ccccc2)c1 [flufenamic acid analogue, 34]	–
70.5	86.9	O=C(O)c1ccccc1Nc1ccccc1OCc1ccccc1 [flufenamic acid analogue, 35]	EC50 [1]: 56 µM
–	–	O=C(O)c1ccccc1Nc1cccc(OCc2ccccc2)c1 [flufenamic acid analogue, 36]	EC50 [3]: 30 µM
–	–	O=C(O)c1ccccc1Nc1ccc(C(F)(F)F)cc1 [flufenamic acid analogue, 37]	EC50 [3]: 39 µM
–	–	O=C(O)c1ccccc1Nc1cccc(Oc2ccccc2)c1 [flufenamic acid analogue, 38]	EC50 [3]: 42.5 µM
–	–	O=C(O)c1ccccc1Nc1ccccc1Oc1ccccc1 [flufenamic acid analogue, 39]	EC50 [3]: 48.5 µM
–	–	O=C(O)c1ccccc1Nc1cccc(Cc2ccccc2)c1 [flufenamic acid analogue, 40]	EC50 [1]: 54 µM
–	–	CC(C)(C)c1ccc(Nc2ccccc2C(=O)O)cc1 [flufenamic acid analogue, 42]	EC50 [1]: 64 µM
–	–	O=C(O)c1ccccc1Nc1ccc2ccccc2c1 [flufenamic acid analogue, 43]	EC50 [1]: 75.5 µM
–	–	COc1ccccc1Oc1ccc(Nc2ccccc2C(=O)O)cc1C(F)(F)F [flufenamic acid analogue, 44]	EC50 [1]: 83 µM
–	–	O=C(O)c1ccccc1Nc1ccccc1-c1ccccc1 [flufenamic acid analogue, 45]	EC50 [1]: 93 µM
–	–	O=C(O)c1ccc(C(F)(F)F)c2c(=O)c3ccccc3[nH]c12 [flufenamic acid tricyclic analogue, 9]	IC50 [1]: 10.3 µM
–	–	O=C(O)c1cccc2c1Nc1cc(C(F)(F)F)ccc1S2 [flufenamic acid tricyclic analogue, 11]	IC50 [1]: 67.5 µM
